In article PMC8070394, “Determination of Colistin in Contents Derived from Gastrointestinal Tract of Feeding Treated Piglet and Broiler” (Antibiotics, 2021):

Experiments:
[1] = pigs, single oral administration, cited from earlier work
Excerpt: Nutrients and drugs are known to be mainly absorbed in the small intestine of animals and humans after oral administration. The dosing regimen of colistin in clinical use depends upon the pharmacokinetics and pharmacodynamics of colistin in humans. Meanwhile, the absorption of oral drugs in the digestive tract is crucial for the dosing regimen as well. Unlike for human medicine, a few studies have been conducted in animals to evaluate the pharmacokinetics and pharmacodynamics of colistin following oral administration. One study has measured colistin in the whole intestin ...

[2] = Colistin in contents of broiler gastrointestinal segments and feces after feeding treatment (UPLC-MS/MS); type: in vivo, cobb broilers; settings: broilers fed colistin 20 mg/kg body weight for 14 days
Description: (§1) Eight weaned piglets (Duroc × Landrace × Large white) 3~4 weeks of age were used in a 14-day feeding trial. First, all piglets were fed with the base diet (Table S1) for an adapting period of 6 days. Subsequently, four piglets fed the base diet were kept as untreated controls, and the other four piglets were fed the base diet, which was supplemented with colistin sulphate at 20 mg/kg of body weight for 14 consecutive days. Thereafter, feces were collected, and the piglets were slaughtered to obtain contents from the swine gastrointestinal segments, including stomach, duodenum, jejunum and cecum. The sixteen cobb broilers 1–3 days in age were selected and fed with a drug-free balanced diet (Table S2) during the 14-day adaption period and the subsequent treatment period. Then, eight broilers were kept as untreated controls, and the other eight broilers were fed with colistin at 20 mg/kg of body weight for 14 consecutive days. At the end of the trial, treated and untreated animals were sacrificed, and the contents derived from the gizzard, proventriculus, duodenum, jejunum, ileum and cecum were recovered. All samples were stored at −80 °C before being analyzed.
(§2) The extraction procedure was based on the methods developed by Fu with some modifications. Briefly, 2 g of samples was lyophilized to dryness and extracted twice with 10 mL of 10% trichloroacetic acid: acetonitrile (40:60, v/v), and the combined extraction solution was adjusted to pH 9.0. Thereafter, the extraction solution was applied to Oasis WCX SPE cartridges which were prewashed with 3 mL of methanol and 3 mL of water. The cartridges were then rinsed with 3 mL of water, 3 mL of methanol and 3 mL of 5% formic acid in water. Eventually, the colistin was eluted with 5 mL of 20% formic acid in methanol. The eluent was evaporated to dryness by vacuum centrifugation at 50 °C and resuspended in 500 μL of deionized water prior to measurement using an UPLC–MS/MS system.
(§3) Chromatography of colistin was conducted with an UltiMate 3000 UPLC system (Thermo Fisher, San Jose, CA, USA) equipped with an Acquity UPLC BEH C18 column (2.1 mm × 100 mm; 1.7 µm particle size; Waters, Milford, MA, USA). The mobile phase A was 0.2% formic acid, 5% acetonitrile in H2O; B was 100% acetonitrile. The colistin was resolved with a linear gradient starting from 95% A solvent to 70% B solvent over 5 min and then to 5% A at 10 min, at a flow rate of 200 µL/min.
(§4) MS spectra were acquired at positive ionization mode with a hybrid quadrupole-obitrap mass spectrometer (Q Exactive, Thermo Fisher, San Jose, CA, USA). The sheath gas flow rate was 25 mL/min; the auxiliary gas flow rate was 15 mL/min; the spray voltage was 3.2 kV; and the temperature of the capillary tube was set to 320 °C. One microscan was used for data acquisition. The resolution settings were full MS target 70,000 and MS/MS target 17,500; normalized CE 20% and 22% were employed for colistin A and colistin B, respectively. Data manipulations were employed using Xcalibur version 4.0 software. Quantitative analyses were conducted in the selective reaction monitoring (SRM) scan mode. The two most abundant fragment ions were selected from each analyte for analysis (Figure S1). The transitions monitored and approximate chromatographic retention times (tR) were as follows: colistin A ([M + 3H]^3+), m/z 390.60 > 101.0696, 241.1860, tR = 7.30 min; colistin B ([M + 3H]^3+), m/z 385.90 > 101.0696, 227.1710, tR = 6.85 min. The mass tolerance was set to 5 ppm for fragment ions.
(§5) Colistin-treated samples and controls were subject to analysis using the proposed method, including stomach, duodenum, jejunum and cecum content samples and feces samples recovered from 4 treated and 4 untreated piglets; gizzard, proventriculus, duodenum, jejunum, ileum and cecum content samples and feces samples from 8 treated and 8 control cobb broilers. […]

[3] = Colistin in contents of swine gastrointestinal segments and feces after feeding treatment (UPLC-MS/MS); type: in vivo, piglets (Duroc × Landrace × Large white); settings: n = 4
Description: as §1, §2, §3, §4, §5

Substance: Colistin
- peak concentration of colistin in samples from the duodenum to ileum, highest level ([1]; HPLC-Fluorescence after derivatization): ~ 90,000 ng/g
- colistin in samples from duodenum to ileum after 4 h ([1]; after 4 h, HPLC-Fluorescence): no colistin was detected
- decrease of the amount of colistin from the cecum to feces [2]: at least 5 fold
- estimate of colistin in samples from the cecum, regardless of the moisture ([2]; cecum content, dried weight, mean ± standard deviation, n = 8): 15766.0 ± 9249.2 ng/g
- average concentration of colistin, cecum ([2]; cecum content, wet weight, mean, n = 8): 4882.9 ng/g
- average concentration of colistin, duodenum ([2]; duodenum content, wet weight, mean, n = 8): 383.7 ng/g
- estimate of colistin in samples from feces, regardless of the moisture ([2]; feces, dried weight, mean ± standard deviation, n = 8): 823.4 ± 616.4 ng/g
- average concentration of colistin in feces samples ([2]; feces, wet weight, mean, n = 8): 147.7 ng/g
- average concentration of colistin, gizzard ([2]; gizzard content, wet weight, mean, n = 8): 1145.7 ng/g
- average concentration of colistin, ileum ([2]; ileum content, wet weight, mean, n = 8): 2056.1 ng/g
- average concentration of colistin, jejunum ([2]; jejunum content, wet weight, mean, n = 8): 1572.3 ng/g
- average concentration of colistin, proventriculus ([2]; proventriculus content, wet weight, mean, n = 8): 448.3 ng/g
- average amount of colistin in content recovered from the cecum, based on dried weight ([3]; piglets fed colistin sulphate 20 mg/kg body weight for 14 days, cecum content, dried weight): ~ 3300 ng/g
- concentration of colistin in content from the cecum ([3]; piglets fed colistin sulphate 20 mg/kg body weight for 14 days, cecum content, wet weight, UPLC-MS/MS, mean ± standard deviation): 398.3 ± 161.2 ng/g
- average concentration of colistin in samples from the duodenum ([3]; piglets fed colistin sulphate 20 mg/kg body weight for 14 days, duodenum content, UPLC-MS/MS): ~ 30 ng/g
- average amount of colistin in feces, based on dried weight ([3]; piglets fed colistin sulphate 20 mg/kg body weight for 14 days, feces, dried weight): ~ 3300 ng/g
- average concentration of colistin in samples from the jejunum ([3]; piglets fed colistin sulphate 20 mg/kg body weight for 14 days, jejunum content, UPLC-MS/MS): ~ 30 ng/g
- average concentration of colistin in feces samples ([3]; piglets fed colistin sulphate 20 mg/kg body weight in diet for 14 consecutive days, feces, wet weight, UPLC-MS/MS, mean): approximately 1248.3 ng/g
